Experimental data from US7381714B2, “A1 adenosine receptor agonists” (CV Therapeutics, Inc., priority 2005, dated 2008).

What was measured:
A1 adenosine receptor = biological target: T1, A1 adenosine receptor (Mesocricetus auratus, UniProt A0A1U8BVR4); test: Competitive radioligand binding assay, DDT cell membranes; parameters: species or system hamster; conditions: membranes of DDT cells; tritiated radioligand 1.5 nM; 23° C. 90 minutes; read-out: A1 BINDING AFFINITY Ki
T1 sequence (A0A1U8BVR4 1-326): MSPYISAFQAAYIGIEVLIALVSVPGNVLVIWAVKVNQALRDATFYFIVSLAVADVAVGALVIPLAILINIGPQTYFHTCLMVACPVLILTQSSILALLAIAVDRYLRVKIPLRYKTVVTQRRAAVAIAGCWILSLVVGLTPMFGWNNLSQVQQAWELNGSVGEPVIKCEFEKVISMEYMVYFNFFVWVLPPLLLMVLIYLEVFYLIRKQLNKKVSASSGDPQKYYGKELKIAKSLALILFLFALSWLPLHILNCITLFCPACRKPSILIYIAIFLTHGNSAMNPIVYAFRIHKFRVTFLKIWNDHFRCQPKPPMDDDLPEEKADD
Procedure: DDT cells (hamster vas deferens smooth muscle cell line) were grown as monolayers in petri dishes using Dulbecco's Modified Eagle's Medium (DMEM) containing 2.5 μg mL^−1 amphotericin B, 100 U mL^−1 penicillin G, 0.1 mg mL^−1 streptomycin sulfate and 5% fetal bovine serum in a humidified atmosphere of 95% air and 5% CO2. Cells were subcultured twice weekly by dispersion in Hank's Balanced Salt Solution (HBSS) without the divalent cations and containing 1 mM EDTA. The cells were then seeded in growth medium at a density of 1.2×10^5 cells per plate and experiments were performed 4 days later at approximately one day preconfluence.
Attached cells were washed twice with HBSS (2×10 mL), scraped free of the plate with the aid of a rubber policeman in 5 mL of 50 mM Tris-HCl buffer pH 7.4 at 4° C. and the suspension was homogenized for 10 s. The suspension was then centrifuged at 27,000×g for 10 min. The pellet was resuspended in homogenization buffer by vortexing and centrifuged again as described above. The final pellet was resuspended in 1 vol of 50 mM Tris-HCl buffer pH 7.4 containing 5 mM MgCl2 for A1 adenosine receptor assays. For the [^35S]GTPγS binding assay the final pellet was resuspended in 50 mM Tris-HCl pH 7.4 containing 5 mM MgCl2, 100 mM NaCl and 1 mM dithiothreitol. This membrane suspension was then placed in liquid nitrogen for 10 min and stored at −80° C. Aliquots of the membrane suspension were later thawed and used for assays. The protein content was determined with a BradfordTm Assay Kit using bovine serum albumin as standard.
Compounds of Formula I were assayed by use of competitive radioligand binding methods to determine their affinity for the A1 adenosine receptor sites on the membranes of DDT cells. […] The amount of radioactivity retained on the filters was determined by liquid scintillation spectrometry. […]

[1] = cited from earlier work

| Ki (A1 adenosine receptor) [nM] | SMILES | half-life [1] |
| --- | --- | --- |
| 3 | CCOC(=O)c1cn(-c2nc(NC3CCCC3)c3ncn([C@@H]4O[C@H](CO)[C@@H](O)[C@H]4O)c3n2)nn1 [II., ethyl 1-{9-[(4S,3R,5R)-3,4-dihydroxy-5-(hydroxymethyl)oxolan-2-yl]-6-(cyclopentylamino)purin-2-yl}-1,2,3-triazole-4-carboxylate] | – |
| 2 | CNC(=O)c1cn(-c2nc(NC3CCCC3)c3ncn([C@@H]4O[C@H](CO)[C@@H](O)[C@H]4O)c3n2)nn1 [III., (1-{9-[(4S,3R,5R)-3,4-dihydroxy-5-(hydroxymethyl)oxolan-2-yl]-6-(cyclopentylamino)purin-2-yl}(1,2,3-triazol-4-yl))-N-methylcarboxamide] | – |
| 16 | NC(=O)c1cn(-c2nc(NC3CCCC3)c3ncn([C@@H]4O[C@H](CO)[C@@H](O)[C@H]4O)c3n2)nn1 [IV., 1-{9-[(4S,3R,5R)-3,4-dihydroxy-5-(hydroxymethyl)oxolan-2-yl]-6-(cyclopentylamino)purin-2-yl}-1,2,3-triazole-4-carboxamide] | – |
| – | Nc1ncnc2c1ncn2[C@@H]1O[C@H](CO)[C@@H](O)[C@H]1O [adenosine] | less than 10 sec |
